The source of these data is article PMC10353061 (ACS Pharmacology & Translational Science, 2023).

The test system of assay [1] is SW620 cells. Description: Inhibition of SW620 cells. Type of assay: cell-based. The following applies: Homo sapiens, SW-620, in the combination 9 at constant 0.25 μM.
For assay [2], the system named is HCT116 colon cancer cell. Particulars: cited from earlier work.

For the compound `O=c1[nH]cc(F)c(=O)[nH]1` [Compound 5-FU, 5-fluorouracil, reference compound], the EC50 – broadly, the concentration that produces a half-maximal response – in assay [1] is 103 µM.

On to `COC(=O)c1ccc(NS(=O)(=O)c2ccc(Br)cc2)cc1` [Compound 1], for which the “IC50, HCT116 colon cancer cell growth” value in assay [2] is on record as “submicromolar”.
